Entries after “also recorded” stand apart in the source; their conditions may differ. Where two headings read alike, the source gives them in different places.

One series has as its system mouse heart allograft. As to conditions: cited from earlier work.
For series [1] the following is noted: mice, intra-peritoneal 32 mg/kg/day for 14 days; cited from earlier work.
The target in series [2] is T1, human estrogen receptor ER-beta (Homo sapiens, UniProt Q92731).
T1 construct: expressed in transfected cells; host or cells: Hela cells, transient co-transfection with lipofectamine
T1 sequence (Q92731 whole entry): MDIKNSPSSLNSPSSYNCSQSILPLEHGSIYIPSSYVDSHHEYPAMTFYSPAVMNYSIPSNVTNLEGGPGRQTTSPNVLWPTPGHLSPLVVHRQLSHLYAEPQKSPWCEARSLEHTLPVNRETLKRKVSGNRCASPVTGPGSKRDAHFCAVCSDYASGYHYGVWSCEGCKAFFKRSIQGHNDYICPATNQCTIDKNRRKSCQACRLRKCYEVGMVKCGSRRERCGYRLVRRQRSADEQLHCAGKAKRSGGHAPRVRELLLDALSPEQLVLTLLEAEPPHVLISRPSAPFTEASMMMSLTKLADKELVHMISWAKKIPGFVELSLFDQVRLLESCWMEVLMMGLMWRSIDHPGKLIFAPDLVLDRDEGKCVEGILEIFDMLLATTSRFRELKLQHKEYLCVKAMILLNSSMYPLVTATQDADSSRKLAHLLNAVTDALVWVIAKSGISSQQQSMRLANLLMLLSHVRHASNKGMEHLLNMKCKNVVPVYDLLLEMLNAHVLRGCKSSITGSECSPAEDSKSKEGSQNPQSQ
Briefly: ER-beta MMTV-ERE-LUC luciferase reporter gene assay in transiently co-transfected Hela cells. The series is classed as cell-based. As to conditions: for ER-alpha versus ER-beta selectivity (in words): compared with ER-alpha. As to the method:
(§1) To assay estrogen receptor agonist activity, Hela cells were grown in 24-well microtiter plates and then transiently co-transfected with two plasmids using lipofectamine. The first plasmid comprised DNA encoding human estrogen receptor (either ER-alpha or ER-beta), and the second plasmid comprised an estrogen-driven reporter system comprising: a luciferase reporter gene (LUC) whose transcription is under the control of upstream regulatory elements comprising 4 copies of the vitelogenin estrogen response element (ERE) cloned into the mouse mammary tumor virus (MMTV) promoter (the full name for the reporter system being “MMTV-ERE-LUC”). Cells were exposed to herbal extracts in RPMI 1640 medium, supplemented with 10% charcoal-treated fetal calf serum, 2 mM L-glutamine, 0.1 mM non-essential amino acids and 1 mM sodium pyruvate for 42-48 hours at 37° C. in a 5% carbon dioxide incubator. […] Replicate wells exposed to the solvent in which herbal extracts were dissolved (i.e. ethanol or methanol) were used as negative controls. After the 42-48 hr incubation period, cells were rinsed with phosphate buffered saline(PBS), lysis buffer (Promega Corp) was added, and cell lysates collected for measurement of luciferase activity with a luminometer. […] All data points are in triplicate.
Background: Reporter assays use an easily measured gene product as a stand-in for the process of interest.

The target of series [3] is T2, human estrogen receptor ER-alpha (Homo sapiens, UniProt P03372).
T2 construct: expressed in transfected cells; host or cells: Hela cells, transient co-transfection with lipofectamine
T2 sequence (P03372 1-595): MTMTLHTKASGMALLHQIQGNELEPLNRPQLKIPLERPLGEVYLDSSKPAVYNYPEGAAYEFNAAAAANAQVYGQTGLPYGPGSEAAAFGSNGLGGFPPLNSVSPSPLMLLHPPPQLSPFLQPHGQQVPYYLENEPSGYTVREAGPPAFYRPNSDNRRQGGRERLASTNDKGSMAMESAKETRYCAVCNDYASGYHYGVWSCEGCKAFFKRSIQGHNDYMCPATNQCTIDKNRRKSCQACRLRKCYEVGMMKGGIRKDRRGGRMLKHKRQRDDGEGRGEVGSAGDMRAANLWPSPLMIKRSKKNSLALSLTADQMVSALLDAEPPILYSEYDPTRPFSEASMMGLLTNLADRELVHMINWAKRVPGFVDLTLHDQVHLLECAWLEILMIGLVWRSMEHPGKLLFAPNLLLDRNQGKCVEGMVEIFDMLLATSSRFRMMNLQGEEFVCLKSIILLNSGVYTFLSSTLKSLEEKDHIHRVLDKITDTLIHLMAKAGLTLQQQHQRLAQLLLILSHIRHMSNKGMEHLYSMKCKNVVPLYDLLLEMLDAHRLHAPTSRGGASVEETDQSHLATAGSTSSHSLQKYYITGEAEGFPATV
Briefly: ER-alpha MMTV-ERE-LUC luciferase reporter gene assay in transiently co-transfected Hela cells. The series is classed as cell-based. As to the method:
as §1

Series [4] has as its system human estrogen receptor (either ER-alpha or ER-beta). Briefly: Estrogen receptor bioassay as in Example 1, ER subtype not stated. Format: cell-based. As to conditions: under the conditions described herein. The protocol:
as §1

The test system of the next series is estrogen receptors. As to conditions: cited from earlier work.

Turning to `COc1ccc(-c2oc3c(CC=C(C)C)c(O)cc(O)c3c(=O)c2O[C@@H]2O[C@@H](C)[C@H](O)[C@@H](O)[C@H]2O)cc1` [Baihuoside I], the “Mouse heart allograft survival” value in the series with mouse heart allograft is reported as “effective at prolonging mouse heart allograft survival”. Also, the Side effects entry in series [1] was “no side effects”.

With `CC(C)=CCc1cc(-c2cc(=O)c3c(O)cc(O)cc3o2)ccc1O` [Compound I, yinyanghuo D], the “ER-beta agonist activity (in words)” value in series [2] was “can activate both ER-alpha and ER-beta”; in series [2] (listed as AF6) it was “strong ER-alpha and ER-beta activity”. For the same compound, the “ER-alpha versus ER-beta selectivity (in words)” value in series [2] (listed as AF6) is “activate both ER-alpha and ER-beta equally; also recorded: estrogen receptor agonist activity on both ER-alpha and ER-beta”. Also, the “Estrogenic activity (fold increased over vehicle), ER-beta” value in series [2] (dose 0.05 μg/ml) stood at 2.598 fold; in series [2] (dose 0.5 μg/ml), 18.763 fold; in series [2] (dose 5 μg/ml), 13.289 fold. The “ER-alpha agonist activity (in words)” value is “can activate both ER-alpha and ER-beta” in series [3]; “strong ER-alpha and ER-beta activity” in series [3] (listed as AF6). Moreover, the figures for the “Estrogenic activity (fold increased over vehicle), ER-alpha” value in series [3] (dose 0.05 μg/ml), in series [3] (dose 0.5 μg/ml) and in series [3] (dose 5 μg/ml) were 4.940 fold, 9.089 fold and 11.618 fold, respectively.

For `CC(C)=CCc1cc(-c2cc(=O)c3c(O)cc(O)cc3o2)cc2c1OC(C(C)(C)O)C2O` (stereo not drawn) [Compound III], in series [2], the “Concentration with ER-beta activity equivalent to estradiol at 1 nM” value worked out at 15 ng/mL. Further, the “ER-beta agonist activity (in words)” value in series [2] is listed as “activated ER-beta strongly”. For the same compound, in series [2] (at 5 μg/ml), the “Factor by which ER-beta is activated more strongly than ER-alpha” value is “about nine-fold”. Also, the “ER-alpha versus ER-beta selectivity (in words)” value in series [2] was “activates ER-beta more strongly than it activates ER-alpha; also recorded: shows specificity for ER-beta”; in series [2] (listed as AF1), “stronger than that observed for ER-alpha estrogen receptors”. Moreover, the “Estrogenic activity (fold increased over vehicle), ER-beta” value in series [2] (dose 0.05 μg/ml) is 1.514 fold; in series [2] (dose 0.5 μg/ml), 6.093 fold; in series [2] (dose 5 μg/ml), 23.132 fold. For the same compound, the “ER-beta stimulatory activity compared with estradiol (in words)” value in series [2] (dose-dependent) is “stronger than that observed for estradiol”. Besides, the “ER-alpha activity as % of that of estradiol” value in series [3] turned out to be 26%. For the same compound, in series [3], the “ER-alpha agonist activity (in words)” value was “very weak ER alpha activity”. Moreover, the “Estrogenic activity (fold increased over vehicle), ER-alpha” value in series [3] (dose 0.05 μg/ml) is given as 1.031 fold; in series [3] (dose 0.5 μg/ml), 2.357 fold; in series [3] (dose 5 μg/ml), 2.694 fold.

Turning to `C=C(C)C(O)Cc1cc(-c2cc(=O)c3c(O)cc(O)cc3o2)cc(CC(O)C(=C)C)c1O` (stereo not drawn) [Compound II], the “Estrogenic activity (in words)” value in series [4] is reported as “no detectable estrogenic activity”.

`O=c1cc(-c2ccc(O)c(O)c2)oc2cc(O)cc(O)c12` [Luteolin]: the “Relative potency of estrogenic activity compared to genistein” value in the series with estrogen receptors is given as 58%.

Take `O=c1c(O)c(-c2ccc(O)c(O)c2)oc2cc(O)cc(O)c12` [quercetin]: in the series on estrogen receptors, the “Relative potency of estrogenic activity compared to genistein” value is 10%.

These data come from patent US6750248B2, “Methods for preparing an estrogenic preparation and isolated estrogenic compounds from a plant and uses thereof” (National University of Singapore, priority 2001, dated 2004).
